# Patent publication US20140364431A1, “Quinoline and cinnoline derivatives and their applications” (Shenyang Pharmaceutical University, priority 2011, published 2014)
# Structures can show the parent of a compound that is named as a salt. Where two headings read alike, the source gives them in different places.
# What was measured:
# [1] = system: SMMC-7721 (hepatoma cell); experiment: In vitro anti-tumor cellular activity (MTT), SMMC-7721; format: cell-based, human; conditions: for IC50: Homo sapiens, read-out: SMMC-7721 IC50
# [2] = system: MKN-45 (human gastric carcinoma cell); experiment: In vitro anti-tumor cellular activity (MTT), MKN-45; format: cell-based; conditions: for IC50: Homo sapiens, read-out: MKN-45 IC50
# [3] = system: HT-29 (colon cancer cell); experiment: In vitro anti-tumor cellular activity (MTT), HT-29; format: cell-based, human; conditions: for IC50: Homo sapiens, read-out: HT-29 IC50
# [4] = system: U87MG (Human malignant glioblastoma cells); experiment: In vitro anti-tumor cellular activity (MTT), U87MG; format: cell-based; conditions: for IC50: Homo sapiens, U-87 MG, read-out: U87MG IC50
# [5] = system: H460 (human lung cancer cell); experiment: In vitro anti-tumor cellular activity (MTT), H460; format: cell-based; conditions: for IC50: Homo sapiens, read-out: H460 IC50
Compound,"IC50 ([1]; SMMC-7721, 72 h) [µg/mL]","IC50 ([2]; MKN-45, 72 h) [µg/mL]","IC50 ([3]; HT-29, 72 h) [µg/mL]",IC50 ([4]; 72 h) [µg/mL],"IC50 ([5]; NCI-H460, 72 h) [µg/mL]","SMMC-7721 IC50 ([1]; MTT, 72 hours, SMMC-7721) [µg/mL]","MKN-45 IC50 ([2]; MTT, 72 hours, MKN-45) [µg/mL]","HT-29 IC50 ([3]; MTT, 72 hours, HT-29) [µg/mL]","U87MG IC50 ([4]; MTT, 72 hours, U87MG) [µg/mL]","H460 IC50 ([5]; MTT, 72 hours, H460) [µg/mL]",other results
"COc1cc2c(Oc3ccc(NC(=O)c4nn(-c5ccc(Cl)cc5Cl)c5ccccc5c4=O)cc3F)ccnc2cc1OCCCN1CCCCC1 [Example 27, N-(3-fluoro-4-((6-methoxy-7-(3-(piperidin-1-yl)propoxy)quinolin-4-yl)oxy)phenyl)-1-(2,4-dichlorophenyl)-4-oxo-1,4-dihydrocinnoline-3-carboxamide]",0.9,2.1,1.8,0.6,1.5,–,–,–,–,–,–
"N-(3-fluoro-4-((6-methoxy-7-(3-(pyrrolidin-1-yl)propoxy)quinolin-4-yl)oxy)phenyl)-1-(3,4-difluorophenyl)-4-oxo-1,4-dihydrocinnoline-3-carboxamide [Example 12]",–,–,–,–,–,0.67,1.2,0.41,0.55,0.91,–
"COc1cc2c(Oc3ccc(NC(=O)c4nn(-c5ccc(Cl)cc5)c5ccccc5c4=O)cc3F)ccnc2cc1OCCCN1CCCCC1 [Example 10, N-(3-fluoro-4-((6-methoxy-7-(3-(piperidin-1-yl)propoxy)quinolin-4-yl)oxy)phenyl)-1-(4-chlorophenyl)-4-oxo-1,4-dihydrocinnoline-3-carboxamide]",1,0.087,0.42,0.86,0.06,–,–,–,–,–,–
"COc1cc2c(Oc3ccc(NC(=O)c4nn(-c5cccc(F)c5)c5ccccc5c4=O)cc3F)cnnc2cc1OCCCN1CCN(C)CC1 [Example 62, N-(3-fluoro-4-((6-methoxy-7-(3-(4-methylpiperazin-1-yl)propoxy)cinnolin-4-yl)oxy)phenyl)-1-(3-fluorophenyl)-4-oxo-1,4-dihydrocinnoline-3-carboxamide]",–,–,–,–,–,–,–,–,–,–,"IC50 ([1]; MTT, 72 hours, SMMC-7721): 2.1 µg/mL; IC50 ([2]; MTT, 72 hours, MKN-45): 3.6 µg/mL; IC50 ([3]; MTT, 72 hours, HT-29): 2.1 µg/mL; IC50 ([4]; MTT, 72 hours, U87MG): 1.4 µg/mL; IC50 ([5]; NCI-H460, MTT, 72 hours, H460): 0.8 µg/mL"
"COc1cc2c(Oc3ccc(NC(=O)c4nn(-c5ccc(C)cc5C)c5ccccc5c4=O)cc3F)ccnc2cc1OCCCN1CCCC1 [Example 25, N-(3-fluoro-4-((6-methoxy-7-(3-(pyrrolidin-1-yl)propoxy)quinolin-4-yl)oxy)phenyl)-1-(2,4-dimethylphenyl)-4-oxo-1,4-dihydrocinnoline-3-carboxamide]",0.76,1.5,1.1,2.9,0.89,–,–,–,–,–,–
"COc1cc2c(Oc3ccc(NC(=O)c4nn(-c5ccc(F)cc5Br)c5ccccc5c4=O)cc3F)ccnc2cc1OCCCN1CCCC1 [Example 18, N-(3-fluoro-4-((6-methoxy-7-(3-(pyrrolidin-1-yl)propoxy)quinolin-4-yl)oxy)phenyl)-1-(2-bromo-4-fluorophenyl)-4-oxo-1,4-dihydrocinnoline-3-carboxamide]",2.1,1.5,0.9,0.8,1.3,–,–,–,–,–,–
"N-(3-fluoro-4-((6-methoxy-7-(3-(morpholin-4-yl)propoxy)quinolin-4-yl)oxy)phenyl)-1-(2-f luorophenyl)-4-oxo-1,4-dihydrocinnoline-3-carboxamide [Example 45]",–,–,–,–,–,2.3,1.6,0.87,2.1,1,–
"N-(3-fluoro-4-((6-methoxy-7-(3-(4-methylpiperidin-1-yl)propoxy)quinolin-4-yl)oxy)phenyl)-1-(2-fluorophenyl)-4-oxo-1,4-dihydrocinnoline-3-carboxamide [Example 14]",–,–,–,–,–,1.1,0.45,0.31,0.15,0.47,–
"COc1cc2c(Oc3ccc(NC(=O)c4nn(-c5cccc(C(F)(F)F)c5)c5ccccc5c4=O)cc3F)ccnc2cc1OCCCN1CCCCC1 [Example 6, N-(3-fluoro-4-((6-methoxy-7-(3-(piperidin-1-yl)propoxy)quinolin-4-yl)oxy)phenyl)-1-(3-(trifluoromethyl)phenyl)-4-oxo-1,4-dihydrocinnoline-3-carboxamide]",1.3,0.1,0.63,1.4,1.7,–,–,–,–,–,–
"COc1cc2c(Oc3ccc(NC(=O)c4nn(-c5ccccc5Cl)c5ccccc5c4=O)cc3F)ccnc2cc1OCCCN1CCOCC1 [Example 33, N-(3-fluoro-4-((6-methoxy-7-(3-(morpholin-4-yl)propoxy)quinolin-4-yl)oxy)phenyl)-1-(2-chlorophenyl)-4-oxo-1,4-dihydrocinnoline-3-carboxamide]",1.6,–,0.9,1.4,2.2,–,–,–,–,–,–
"N-(3-fluoro-4-((6-methoxy-7-(3-(piperidin-1-yl)propoxy)quinolin-4-yl)oxy)phenyl)-1-(2-(tr ifluoromethyl)phenyl)-4-oxo-1,4-dihydrocinnoline-3-carboxamide dihydrochloride [Example 5]",–,–,–,–,–,0.25,0.2,0.42,1.2,0.77,–
"N.N.[Cl][Pt][Cl] [Cisplatin, reference compound]",–,–,–,–,–,0.9,0.68,1,0.19,0.23,–
"COc1cc2c(Oc3ccc(NC(=O)c4nn(-c5ccccc5C(F)(F)F)c5ccccc5c4=O)cc3F)ccnc2cc1OCCCN1CCOCC1 [Example 4, N-(3-fluoro-4-((6-methoxy-7-(3-(morpholin-4-ylpropoxy)quinolin-4-yl)oxy)phenyl)-1-(2-(trifluoromethyl)phenyl)-4-oxo-1,4-dihydrocinnoline-3-carboxamidedihydrochloride]",0.9,2,1.2,0.8,1,–,–,–,–,–,–
"COc1cc2c(Oc3ccc(NC(=O)c4nn(-c5ccccc5Br)c5ccccc5c4=O)cc3F)ccnc2cc1OCCCN1CCOCC1 [Example 34, N-(3-fluoro-4-((6-methoxy-7-(3-(morpholin-4-yl)propoxy)quinolin-4-yl)oxy)phenyl)-1-(2-bromophenyl)-4-oxo-1,4-dihydrocinnoline-3-carboxamide]",1.5,1.3,0.43,0.65,0.7,–,–,–,–,–,–
"COc1cc2c(Oc3ccc(NC(=O)c4nn(-c5ccc(Br)cc5)c5ccccc5c4=O)cc3F)ccnc2cc1OCCCN1CCCCC1.Cl.Cl [Example 3, N-(3-fluoro-4-((6-methoxy-7-(3-(piperidin-1-yl)propoxy)quinolin-4-yl)oxy)phenyl)-1-(4-bromophenyl)-4-oxo-1,4-dihydrocinnoline-3-carboxamide dihydrochloride]",0.63,0.34,0.86,1.2,0.3,–,–,–,–,–,–
"COc1cc2c(Oc3ccc(NC(=O)c4nn(-c5c(Cl)cccc5Cl)c5ccccc5c4=O)cc3F)ccnc2cc1OCCCN1CCCCC1 [Example 29, N-(3-fluoro-4-((6-methoxy-7-(3-(piperidin-1-yl)propoxy)quinolin-4-yl)oxy)phenyl)-1-(2,6-dichlorophenyl)-4-oxo-1,4-dihydrocinnoline-3-carboxamide]",1.2,0.67,0.44,0.74,0.77,–,–,–,–,–,–
"COc1cc2c(Oc3ccc(NC(=O)c4nn(-c5cccc(F)c5)c5ccccc5c4=O)cc3F)cnnc2cc1OCCCN1CCCCC1 [Example 64, N-(3-fluoro-4-((6-methoxy-7-(3-(piperidin-1-yl)propoxy)cinnolin-4-yl)oxy)phenyl)-1-(3-fluorophenyl)-4-oxo-1,4-dihydrocinnoline-3-carboxamide]",–,–,–,–,–,–,–,–,–,–,"IC50 ([1]; MTT, 72 hours, SMMC-7721): 1.9 µg/mL; IC50 ([2]; MTT, 72 hours, MKN-45): 3.3 µg/mL; IC50 ([3]; MTT, 72 hours, HT-29): 3.2 µg/mL; IC50 ([4]; MTT, 72 hours, U87MG): 2.7 µg/mL; IC50 ([5]; NCI-H460, MTT, 72 hours, H460): 1.8 µg/mL"
"COc1cc2c(Oc3ccc(NC(=O)c4nn(-c5cc(C(F)(F)F)ccc5Cl)c5ccccc5c4=O)cc3F)ccnc2cc1OCCCN1CCCC1 [Example 22, N-(3-fluoro-4-((6-methoxy-7-(3-(pyrrolidin-1-yl)propoxy)quinolin-4-yl)oxy)phenyl)-1-(2-chloro-5-(trifluoromethyl)phenyl)-4-oxo-1,4-dihydrocinnoline-3-carboxamide]",0.54,0.28,0.81,0.96,0.54,–,–,–,–,–,–
"N-(3-fluoro-4-((6-methoxy-7-(3-(piperidin-1-yl)propoxy)quinolin-4-yl)oxy)phenyl)-1-(2-ch lorophenyl)-4-oxo-1,4-dihydrocinnoline-3-carboxamide dihydrochloride [Example 2]",–,–,–,–,–,0.3,0.007,0.19,0.35,0.052,–
"COc1cc2c(Oc3ccc(NC(=O)c4nn(-c5c(Cl)cccc5Cl)c5ccccc5c4=O)cc3F)ccnc2cc1OCCCN1CCCC1 [Example 31, N-(3-fluoro-4-((6-methoxy-7-(3-(pyrrolidin-1-yl)propoxy)quinolin-4-yl)oxy)phenyl)-1-(2,6-dichlorophenyl)-4-oxo-1,4-dihydrocinnoline-3-carboxamide]",0.33,0.18,0.27,0.26,0.77,–,–,–,–,–,–
